Consider 44 compounds from patent US20230279020A9, “CARM1 INHIBITORS AND USES THEREOF” (Epizyme, Inc., priority 2013, published 2023).

A value given as a limit tells only on which side of the number the result lay.

This assay deals with Human CARM1 (PRMT4) (Homo sapiens (Human), UniProt Q86X55). The assay can be described thus: CARM1 enzyme assay on peptide substrate (3H-SAM Flashplate). The note with it: Biochemical potencies, classification codes; read-out: Biochem IC50.
Sequence of Human CARM1 (PRMT4) (Q86X55 other isoform, or with tags, fused parts or gaps isoform Q86X55-1): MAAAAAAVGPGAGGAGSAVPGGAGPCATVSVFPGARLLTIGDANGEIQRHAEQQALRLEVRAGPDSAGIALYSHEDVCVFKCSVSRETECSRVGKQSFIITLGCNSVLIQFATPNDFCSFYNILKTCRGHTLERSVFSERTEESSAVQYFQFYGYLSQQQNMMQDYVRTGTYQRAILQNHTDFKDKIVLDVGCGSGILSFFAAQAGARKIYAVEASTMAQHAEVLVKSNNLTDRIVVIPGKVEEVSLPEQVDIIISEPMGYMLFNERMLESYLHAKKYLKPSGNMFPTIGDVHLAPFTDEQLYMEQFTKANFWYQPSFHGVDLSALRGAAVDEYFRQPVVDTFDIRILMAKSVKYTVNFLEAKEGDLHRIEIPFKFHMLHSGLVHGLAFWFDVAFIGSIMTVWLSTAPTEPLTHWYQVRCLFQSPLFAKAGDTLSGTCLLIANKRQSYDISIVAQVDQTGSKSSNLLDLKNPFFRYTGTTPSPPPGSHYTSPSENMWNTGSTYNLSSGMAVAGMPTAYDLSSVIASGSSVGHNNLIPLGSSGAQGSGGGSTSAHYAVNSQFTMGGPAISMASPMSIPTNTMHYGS
What is called IC50 is the concentration that gives 50% inhibition. On to `CCOC(=O)N1CC[C@@H](Nc2nc(-c3cccc(OCC(O)CNC)c3)nc(-c3c(C)noc3C)c2C)[C@H](F)C1` (some centres unmarked) [Example 229-1a], for which the half-inhibitory concentration (IC50) is less than 100 nM.

Consider `CNC[C@@H](O)COc1ccc(Cl)c(-c2nc(-c3c(C)noc3C)c(Cl)c(N3CC4(CCOCC4)C3)n2)c1` [Example 229-3], for which the IC50 was less than 100 nM.

For `CCS(=O)(=O)N1CCOC[C@@H]1CNc1nc(-c2cccc(OCC(O)CNC)c2)nc(-c2c(C)noc2C)c1C` (some centres unmarked) [Example 230-1a], the concentration for half-maximal inhibition (IC50) was less than 100 nM.

`CNC[C@@H](O)COc1ccc(Cl)c(-c2nc(NC3CC(C)C3)c(C)c(-c3c(C)noc3C)n2)c1` (some centres unmarked) [Example 230-3]: the IC50 is less than 100 nM.

Turning to `CNCC(O)COc1cccc(-c2nc(N[C@H]3C[C@H](C(C)(C)O)C3)c(C)c(-c3c(C)noc3C)n2)c1` (some centres unmarked) [Example 231-1a], the half-maximal inhibitory concentration (IC50) was less than 100 nM.

As for `CNC[C@@H](O)COc1ccc(Cl)c(-c2nc(-c3c(C)noc3C)c(C)c(N3Cc4cn[nH]c4C3)n2)c1` [Example 231-3], the IC50 is less than 100 nM.

Turning to `CNCC(O)COc1cccc(-c2nc(N[C@H]3C[C@@H](C(C)(C)O)C3)c(C)c(-c3c(C)noc3C)n2)c1` (some centres unmarked) [Example 232-1a], the half-maximal inhibitory concentration (IC50) was less than 100 nM.

Regarding `CNC[C@@H](O)COc1ccc(Cl)c(-c2nc(-c3c(C)noc3C)c(C)c(N3Cc4cc(OC)cnc4C3)n2)c1` [Example 232-3], the IC50 was less than 100 nM.

Take `CNCC(O)COc1cccc(-c2nc(Nc3cc(C)on3)c(C)c(-c3c(C)noc3C)n2)c1` (centres unmarked) [Example 233-1a]: the IC50 is less than 100 nM.

As to `CNC[C@@H](O)COc1ccc(Cl)c(-c2nc(NC[C@H]3CCOC3)c(C)c(-c3c(C)noc3C)n2)c1` [Example 233-3], the IC50 is less than 100 nM.

With `CNCC(O)COc1cccc(-c2nc(N[C@H]3CC[C@H](OC)C3)c(C)c(-c3c(C)noc3C)n2)c1` (some centres unmarked) [Example 234-1a], the IC50 was less than 100 nM.

For the compound `CNC[C@@H](O)COc1ccc(Cl)c(-c2nc(-c3c(C)noc3C)c(C)c(N3CCC4(CC4)C3)n2)c1` [Example 234-3], the 50% inhibitory concentration (IC50) was less than 100 nM.

Consider `CNCC(O)COc1cccc(-c2nc(-c3c(C)noc3C)c(C)c(N3CCN(Cc4ccccc4)C(C(F)F)C3)n2)c1` (centres unmarked) [Example 235-1a], for which the 50% inhibitory concentration (IC50) is less than 100 nM.

As for `CNC[C@@H](O)COc1ccc(Cl)c(-c2nc(-c3c(C)noc3C)c(C)c(N3CC4CC4C3)n2)c1` (some centres unmarked) [Example 235-3], the concentration for half-maximal inhibition (IC50) was less than 100 nM.

For `CNCC(O)COc1cccc(-c2nc(NC3CCOCC3)c(C)c(-c3c(C)noc3C3CC3)n2)c1` (centres unmarked) [Example 236-1a], the 50% inhibitory concentration (IC50) is less than 100 nM.

As to `CNC[C@@H](O)COc1ccc(Cl)c(-c2nc(-c3c(C)noc3C)c(C)c(N3Cc4c(C)nn(C)c4C3)n2)c1` [Example 236-3], the IC50 is less than 100 nM.

`CNCC(O)COc1cccc(-c2nc(NC3CN(CC(F)F)C3)c(C)c(-c3c(C)noc3C)n2)c1` (centres unmarked) [Example 237-1a]: the IC50 is less than 100 nM.

`CCOC(=O)N1CC(Nc2nc(-c3cccc(OCC(O)CNC)c3)nc(-c3c(C)noc3C)c2C)C1` (centres unmarked) [Example 238-1a]: the half-maximal inhibitory concentration (IC50) is less than 100 nM.

`CNC[C@@H](O)COc1ccc(Cl)c(-c2nc(-c3c(C)noc3C)c(C)c(N3CCC3)n2)c1` [Example 238-3]: the IC50 is less than 100 nM.

For the compound `CNCC(O)COc1cccc(-c2nc(NC3CCOC(C)C3)c(C)c(-c3c(C)noc3C)n2)c1` (centres unmarked) [Example 239-1a], the IC50 is less than 100 nM.

On to `CNC[C@@H](O)COc1ccc(Cl)c(-c2nc(-c3cnn(C)c3)c(C)c(-c3c(C)noc3C)n2)c1` [Example 239-3], for which the IC50 was less than 100 nM.

As to `CNCC(O)COc1cccc(-c2nc(NC3CCN(C4COC4)C3)c(C)c(-c3c(C)noc3C)n2)c1` (centres unmarked) [Example 240-1a], the IC50 is less than 100 nM.

Take `CCO[C@@H]1CCC[C@H]1Nc1nc(-c2cc(OC[C@H](O)CNC)ccc2Cl)nc(-c2c(C)noc2C)c1C` [Example 240-3]: the IC50 is less than 100 nM.

`CNCC(O)COc1cccc(-c2nc(NC3CCCC3)c(C)c(-c3c(C)noc3C)n2)c1` (centres unmarked) [Example 241-1a]: the IC50 is less than 100 nM.

Regarding `CCO[C@@H]1CCC[C@H]1N(CC)c1nc(-c2cc(OC[C@H](O)CNC)ccc2Cl)nc(-c2c(C)noc2C)c1C` [Example 241-3], the IC50 is less than 100 nM.

Take `CNCC(O)COc1cccc(-c2nc(NC3C[C@H]4CC[C@@H](C3)N4C(=O)OC)c(C)c(-c3c(C)noc3C)n2)c1` (some centres unmarked) [Example 242-1a]: the IC50 was less than 100 nM.

Take `CCO[C@H]1CCC[C@H]1Nc1nc(-c2cc(OC[C@H](O)CNC)ccc2Cl)nc(-c2c(C)noc2C)c1C` [Example 242-3]: the half-inhibitory concentration (IC50) is less than 100 nM.

On to `CNCC(O)COc1cccc(-c2nc(NC3CCN(C(=O)C4CC4)C3)c(C)c(-c3c(C)noc3C)n2)c1` (centres unmarked) [Example 243-1a], for which the 50% inhibitory concentration (IC50) is less than 100 nM.

For the compound `CNC[C@@H](O)COc1ccc(Cl)c(-c2nc(-c3c(C)noc3C)c(Cl)c(N3Cc4nc(C)sc4C3)n2)c1` [Example 243-3], the IC50 is less than 100 nM.

As to `CNCC(O)COc1cccc(-c2nc(NC3CCN(C(=O)N(C)C)CC3)c(C)c(-c3c(C)noc3C)n2)c1` (centres unmarked) [Example 244-1a], the half-maximal inhibitory concentration (IC50) was less than 100 nM.

In the case of `CNC[C@@H](O)COc1ccc(F)c(-c2nc(-c3c(C)noc3C)c(C)c(N3Cc4cc(OC)cnc4C3)n2)c1` [Example 244-3], the IC50 is less than 100 nM.

For the compound `CNCC(O)COc1cccc(-c2nc(NC3CCN(C(=O)C4CC4)CC3)c(C)c(-c3c(C)noc3C)n2)c1` (centres unmarked) [Example 245-1a], the concentration for half-maximal inhibition (IC50) was less than 100 nM.

For `CNC[C@@H](O)COc1ccc(Cl)c(-c2nc(-c3c(C)noc3C)c(C)c(N3Cc4cnc(C)nc4C3)n2)c1` [Example 245-3], the IC50 is less than 100 nM.

In the case of `CNCC(O)COc1cccc(-c2nc(NC3CCCN(C4COC4)C3)c(C)c(-c3c(C)noc3C)n2)c1` (centres unmarked) [Example 246-1a], the half-inhibitory concentration (IC50) is less than 100 nM.

As to `CNC[C@@H](O)COc1ccc(Cl)c(-c2nc(-c3c(C)noc3C)c(C)c(N3CC4(CCC4)C3)n2)c1` [Example 246-3], the IC50 is less than 100 nM.

Consider `CNCC(O)COc1cccc(-c2nc(NC3CCCN(C(=O)C4CC4)C3)c(C)c(-c3c(C)noc3C)n2)c1` (centres unmarked) [Example 247-1a], for which the IC50 was less than 100 nM.

Regarding `CNC[C@@H](O)COc1ccc(C(F)(F)F)c(-c2nc(-c3c(C)noc3C)c(C)c(N3Cc4cncnc4C3)n2)c1` [Example 247-3], the concentration for half-maximal inhibition (IC50) was less than 100 nM.

For the compound `CNCC(O)COc1cccc(-c2nc(NCC3CCN(C(=O)N(C)C)CC3)c(C)c(-c3c(C)noc3C)n2)c1` (centres unmarked) [Example 248-1a], the IC50 was less than 100 nM.

In the case of `CNC[C@@H](O)COc1ccc(Cl)c(-c2nc(-c3c(C)noc3C)c(C)c(N3Cc4cc(Br)cnc4C3)n2)c1` [Example 248-3], the IC50 is less than 100 nM.

For `CNCC(O)COc1cccc(-c2nc(NCC3CCN(C(=O)C4CC4)CC3)c(C)c(-c3c(C)noc3C)n2)c1` (centres unmarked) [Example 249-1a], the concentration for half-maximal inhibition (IC50) is less than 100 nM.

For `CNC[C@@H](O)COc1ccc(Cl)c(-c2nc(-c3c(C)noc3C)cc(N3CC4(CCOCC4)C3)n2)c1` [Example 249-3], the half-maximal inhibitory concentration (IC50) is less than 100 nM.

As to `CNCC(O)COc1cccc(-c2nc(N[C@@H]3CCC[C@@H]3O)c(C)c(-c3c(C)noc3C)n2)c1` (some centres unmarked) [Example 250-1a], the IC50 was less than 100 nM.

As to `CNC[C@@H](O)COc1ccc(Cl)c(-c2nc(-c3c(C)noc3C)cc(N3Cc4cnn(C)c4C3)n2)c1` [Example 250-3], the IC50 is less than 100 nM.

`CNCC(O)COc1cccc(-c2nc(-c3c(C)noc3C)c(C)c(N3CCC4(CC3)CN(C(=O)OC)C4)n2)c1` (centres unmarked) [Example 251-1a]: the IC50 was less than 100 nM.
